Source: ChEMBL document CHEMBL3351770, “Synthesis, antioxidant and cytoprotective evaluation of potential antiatherogenic phenolic hydrazones. A structure-activity relationship insight” (Bioorg Med Chem, 2014)
pIC50: −log10 of the molar value.

Assays:
[1] = Antioxidant activity assessed as DPPH radical scavenging activity by UV-Visible spectrophotometry; assay type: physicochemical
[2] = Antioxidant activity assessed as reduction in mouse CRL2181 cells-mediated human LDL oxidation by measuring TBARS level at 10 uM after 18 hrs; assay type: physicochemical, cell-based; parameters: scale not given: the % may be the effect or the level left
[3] = Antioxidant activity assessed as reduction in mouse CRL2181 cells-mediated human LDL oxidation by measuring TBARS level at 1 uM after 18 hrs; assay type: physicochemical, cell-based; conditions: read-out: Activity
[4] = Cytoprotection in mouse CRL2181 cells assessed as reduction in UV-oxidized LDL-induced cytotoxicity by measuring cell viability at 10 uM after 24 hrs by MTT assay relative to untreated control; assay type: functional
[5] = Cytoprotection in mouse CRL2181 cells assessed as reduction in UV-oxidized LDL-induced cytotoxicity by measuring cell viability at 1 uM after 24 hrs by MTT assay relative to untreated control; assay type: functional
[6] = Antioxidant activity assessed as superoxide anion radical scavenging activity at 10 uM by PMS-NADH-NBT system based spectrophotometry; assay type: physicochemical

Compound | pIC50 [1] | Activity [2] [%] | inhibition at 1 µM [3] [%] | Activity [4] [%] | Activity [5] [%] | Activity [6] [%]
COc1cc(/C=N/Nc2nncc3ccccc23)cc(OC)c1O | 4.55 | 4 | 38 | 66 | 46 | –
COc1cc(/C=N/NC(=O)OCc2ccccc2)cc(OC)c1O | 4.22 | 3 | 38 | 69 | 45 | –
COc1cc(/C=N/Nc2nc3ccccc3s2)cc(OC)c1O | – | 3 | 36 | 55 | 39 | 35
COc1cc(/C=N/NC(=O)c2ccncc2)cc(OC)c1O | 4.77 | 7 | 48 | 65 | 34 | –
COc1cc(/C=N/Nc2nc3ccccc3s2)ccc1O | – | 7 | 65 | 61 | 44 | –
COc1cc(/C=N/NC(=O)c2ccncc2)cc(OC)c1OC | < 3.00 | 94 | 95 | 4 | 4 | –
COc1cc(/C=N/N2C(=O)CSC2=S)ccc1O | 4.89 | 5 | 66 | 72 | 34 | –
COc1cc(/C=N/Nc2nncc3ccccc23)cc(OC)c1OC.Cl | 4.40 | 93 | 96 | 5 | 6 | –
COc1cc(/C=N/Nc2nncc3ccccc23)cc(O)c1O.Cl | – | 3 | 27 | 97 | 69 | 36.7
COc1cc(/C=N/Nc2nncc3ccccc23)ccc1O.Cl | 4.70 | 4 | 46 | 100 | 24 | –
Cl.Oc1ccc(/C=N/Nc2nncc3ccccc23)cc1O | 5.17 | 3 | 51 | 72 | 34 | –
COc1cc(/C=N/NC(=O)c2ccncc2)cc(O)c1O | 4.74 | 8 | 59 | 80 | 41 | –
O=C(N/N=C/c1ccc(O)c(O)c1)c1ccncc1 | 5.21 | 4 | 19 | 101 | 84 | –
COc1cc(/C=N/NC(=O)c2ccncc2)c(O)cc1O | 4.82 | 82 | 87 | 20 | 18 | –
COc1cc(/C=N/NC(=O)OCc2ccccc2)cc(OC)c1OC | < 3.00 | 100 | 95 | 4 | 5 | –
COc1cc(/C=N/NC(=O)OCc2ccccc2)cc(O)c1O | 4.67 | 2 | 17 | 57 | 34 | 41.4
COc1cc(/C=N/NC(=O)OCc2ccccc2)ccc1O | 4.40 | 36 | 75 | 73 | 73 | –
O=C(N/N=C/c1ccc(O)c(O)c1)OCc1ccccc1 | 5.14 | 6 | 27 | 84 | 48 | –

Compound | pIC50 [1] | Activity [2] [%] | inhibition at 1 µM [3] [%] | Activity [4] [%] | Activity [5] [%] | Activity [6] [%]
O=C(N/N=C/c1ccccc1O)OCc1ccccc1 | < 3.00 | 104 | 106 | 34 | 24 | –
COc1cc(/C=N/NC(=O)OCc2ccccc2)c(O)cc1O | 4.87 | 6 | 74 | 79 | 43 | –
COc1cc(/C=N/N(C)C(=O)OCc2ccccc2)cc(OC)c1O.Cl | 3.92 | 5 | 10 | 64 | 55 | –
COc1cc(/C=N/N(C)C(=O)OCc2ccccc2)cc(OC)c1OC.Cl | < 5.15 | 90 | 98 | 6 | 6 | –
COc1cc(/C=N/N(C)C(=O)OCc2ccccc2)ccc1O.Cl | 4.58 | 5 | 58 | 71 | 41 | –
COc1cc(/C=N/Nc2nc3ccccc3s2)cc(OC)c1OC | 4.37 | 14 | 100 | 57 | 4 | 34
Oc1ccc(/C=N/Nc2nc3ccccc3s2)cc1O | – | 7 | 44 | 57 | 33 | 41.7
COc1cc(/C=N/Nc2nc3ccccc3s2)cc(O)c1O | 5.17 | 7 | 56 | 54 | 38 | –
COc1cc(/C=N/N(C)c2nc3ccccc3s2)cc(OC)c1O | – | 3 | 5 | 110 | 107 | 43.3
COc1cc(/C=N/N(C)c2nc3ccccc3s2)cc(OC)c1OC | < 3.00 | 82 | 84 | 7 | 7 | –
COc1cc(/C=N/N(C)c2nc3ccccc3s2)ccc1O | 4.58 | 9 | 20 | 96 | 96 | –
COc1cc(/C=N/N2C(=O)CSC2=S)cc(OC)c1O | 4.93 | 5 | 59 | 85 | 53 | –
O=C1CSC(=S)N1/N=C/c1ccccc1O | 4.88 | 5 | 79 | 87 | 26 | –
Cc1c(C)c2c(c(C)c1O)CC[C@@](C)(CCC[C@H](C)CCC[C@H](C)CCCC(C)C)O2 [ALPHA-TOCOPHEROL] | – | 55 | 78 | 47 | – | –
O=C(/C=C/c1ccc(O)c(O)c1)O[C@@H]1C[C@](O)(C(=O)O)C[C@@H](O)[C@H]1O [CHLOROGENIC ACID] | – | – | – | – | – | 35.5
COc1cc(/C=N/NC(=O)c2ccncc2)ccc1O [FTIVAZIDE] | 4.07 | 95 | 90 | 63 | 36 | –
O=C(N/N=C/c1ccccc1O)c1ccncc1 [SALINAZID] | < 3.00 | 31 | 75 | 24 | 20 | –
Cc1c(C)c2c(c(C)c1O)CCC(C)(C(=O)O)O2 (stereo unspecified) [TROLOX] | 4.70 | 33 | 69 | 76 | 50 | 22.2
